The text below walks through data of patent US20080200531A1, “CDKI pathway inhibitors as inhibitors of tumor cell growth” (priority 2006, published 2008).

Series [1] in a line: Range Finder Study (acute toxicity, MTD) in NCr nude mice. It counts as in vivo. As to conditions: for impact on White Blood Cell count, first iteration: up to 17.6 mg/kg intravenously; for impact on White Blood Cell count, second iteration / toxicity in the Range Finder Study: up to 70.4 mg/kg intravenously. Here is the method: Male NCr nude mice, aged approximately 6-8 weeks were used for the study, which was carried out as a service by Taconic Biotechnology, Rensselaer, N.Y. Animals were maintained under virus free barrier conditions with continuous health monitoring. The administration of test materials, all data collection and disposal of study animals was in compliance with all relevant Taconic Biotechnology Standard Operating Procedures as well as The Guide for the Care and Use of Laboratory Animals. Study animals were observed upon arrival and daily throughout the study for overall health, behavior and morbidity. Test animals were subject to body weight measurement to determine dosage volumes of test articles.
The initial part of this analysis was a Range Finder Study, designed to evaluate acute toxicity and to identify the maximum tolerated dose (MTD) for therapeutic study. The Range Finder Study was performed twice. For the first iteration, 30 mice were injected intravenously with SNX9 and SNX9-1 in groups of 3 with phosphate buffered saline (PBS) only, 2.2 mg/kg SNX9, 4.4 mg/kg SNX9 8.8 mg/kg SNX9, 17.6 mg/kg SNX9, 80% PBS: 20% DMSO, 2.2 mg/kg SNX9-1, 4.4 mg/kg SNX9-1 8.8 mg/kg SNX9-1, 17.6 mg/kg SNX9-1. SNX9 was dissolved in PBS and SNX9-1 was dissolved in 80% PBS:20% DMSO. The volume injected per animal was approximately 0.1 ml/injection. […] All other animals appeared healthy and thrived for the duration of the 3 day period of observation, and their general health and body weight were assessed. For all the mice, there was no significant weight change (see Table 4). At the end of the 3 day observation period all the mice were euthanized and a terminal blood sample was collected via cardiac puncture. These blood samples were analyzed for complete blood count evaluation. […] A slight elevation of Red Blood Cell count was detected in approximately half of the groups, although this elevation was less than a 7% increase above the upper reference range and was not considered significant. All other blood count categories placed within the reference range.
For the second iteration, 24 mice were injected intravenously with SNX9 and SNX9-1 in groups of 3 with PBS only, 17.6 mg/kg SNX9, 35.2 mg/kg SNX9, 70.4 mg/kg SNX9, 80% PBS:20% DMSO, […] SNX9-1, 35.2 mg/kg SNX9-1, 70.4 mg/kg SNX9-1. […] All other animals were healthy for the duration of the 3 day period during which the animals were observed and their general health and body weight were assessed. For all the mice, there was no significant weight change (see Table 4). The average beginning weight for the mice in the second iteration was 23.7 g±1.73. After the 3 day observation period all the mice were euthanized and a terminal blood sample was collected via cardiac puncture. These blood samples were analyzed for complete blood count evaluation. […] A slight elevation of Red Blood Cell count was detected in approximately 7 out of eight of the groups, although this elevation was less than a 6% increase above the upper reference range and was not considered significant. All other blood count categories placed within the reference range.

Series [2] deals with CDK2/cyclinA (h), CDK2/cyclinE (h). The series is described as follows: Cyclin/CDK kinase assay (Upstate), CDK2/cyclinA and CDK2/cyclinE. It is filed as biochemical, human. Conditions: 100 μM, re-tested at 20 and 40 μM (SNX9, SNX2) or 10 and 20 μM (SNX9-1, SNX14). Here is the method:
(§1) To test the above hypothesis, we determined whether several CDKI pathway inhibitors, including two SNX9 class compounds (SNX9 and SNX9-1), two compounds of a different structural class (SNX14 and SNX2) and another unrelated inhibitor (SNX35), inhibit the kinase activity of different complexes formed in vitro by purified cyclin/CDK complexes. This analysis was carried out as a service by Upstate Biotechnology, Inc.
(§2) In a final reaction volume of 25 μl, CDK2/cyclinA (h) (5-10 mU) is incubated with 8 mM MOPS pH 7.0, 0.2 mM EDTA, 0.1 mg/ml histone H1, 10 mM MgAcetate and [γ-33P-ATP] (specific activity approx. 500 cpm/pmol, 45 μM concentration). The reaction is initiated by the addition of the MgATP mix. After incubation for 40 minutes at room temperature, the reaction is stopped by the addition of 5 μl of a 3% phosphoric acid solution. 10 μl of the reaction is then spotted onto a P30 filtermat and washed three times for 5 minutes in 75 mM phosphoric acid and once in methanol prior to drying and scintillation counting.
In a final reaction volume of 25 μl, CDK2/cyclinE (h) (5-10 mU) is incubated with 8 mM MOPS pH 7.0, 0.2 mM EDTA, 0.1 mg/ml histone H1, 10 mM MgAcetate and [γ-33P-ATP] (specific activity approx. 500 cpm/pmol, 120 μM concentration). The reaction is initiated by the addition of the MgATP mix. […]

In series [3] the test system is WI-38 and BJ-EN fibroblasts vs HT1080, HCT116, C33-A, Calu-6. The series is described as follows: 3-day growth inhibition assay (Hoechst 33342), normal fibroblasts vs tumor cell lines. As to conditions: 3-day assay, WI-38, BJ-EN vs HT1080, HCT116, C33-A.
Protocol: The assays were carried out in 96-well plates, in triplicates; the plated cell numbers for each cell line were determined in preliminary experiments to assure exponential growth over the 3-day period of the assay. The cell numbers were measured by staining DNA of attached cells with Hoechst 33342, and the results for each dose were expressed as the decrease in cell number relative to untreated cells. For some of the tumor/normal cell line combinations, the assays were repeated using CellTiter-Glo viability assay (Promega), with the same results.
The test system of series [4] is cyclin/CDK complexes (CDK1, CDK2, CDK3, CDK6). The series is described as follows: Cyclin/CDK kinase assays, comparison over all complexes. It counts as biochemical, human. Here is the method:
as §1
(§3) At the first step, all the compounds were tested at 100 μM concentration. […] For SNX14 and SNX2, the relative efficacy of inhibition was CDK1>CDK2˜CDK3>CDK6. For SNX9 and SNX9-1, the order was CDK3>CDK1>CDK2>CDK6 (FIG. 12).

The target of the next series is T1, CDK6/cyclinD3 (h) (Homo sapiens, UniProt Q00534).
T1 construct: purchased Upstate Biotechnology, Inc
T1 sequence (Q00534 whole entry): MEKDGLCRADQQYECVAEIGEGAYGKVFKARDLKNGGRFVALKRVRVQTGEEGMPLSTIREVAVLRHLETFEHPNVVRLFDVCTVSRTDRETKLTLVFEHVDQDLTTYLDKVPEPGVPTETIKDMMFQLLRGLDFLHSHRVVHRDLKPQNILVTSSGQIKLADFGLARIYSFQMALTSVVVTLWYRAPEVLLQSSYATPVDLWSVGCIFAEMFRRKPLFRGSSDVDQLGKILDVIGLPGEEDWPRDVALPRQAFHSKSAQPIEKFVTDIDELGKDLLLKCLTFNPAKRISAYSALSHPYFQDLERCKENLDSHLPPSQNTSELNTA
T1 sequence (P30281 whole entry partner): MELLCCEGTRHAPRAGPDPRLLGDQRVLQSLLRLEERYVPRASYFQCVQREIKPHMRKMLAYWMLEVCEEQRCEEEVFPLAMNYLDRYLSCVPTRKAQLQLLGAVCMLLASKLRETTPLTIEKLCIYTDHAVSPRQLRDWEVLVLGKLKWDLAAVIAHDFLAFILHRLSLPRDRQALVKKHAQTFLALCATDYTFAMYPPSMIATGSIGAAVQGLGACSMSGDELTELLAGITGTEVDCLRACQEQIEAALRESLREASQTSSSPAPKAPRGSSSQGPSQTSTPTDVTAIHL
In words: Cyclin/CDK kinase assay (Upstate), CDK6/cyclinD3. It is filed as biochemical. As to conditions: 100 μM, re-tested at 20 and 40 μM (SNX9, SNX2) or 10 and 20 μM (SNX9-1, SNX14). Here is the method:
as §1
as §2, with “μl, CDK6/cyclinD3” for “μl, CDK2/cyclinA”, “0.2 mm” for “0.2 mM”, “mg/ml” for “mg/ml histone”, “cpm/pmol, 200” for “cpm/pmol, 45”
as §3

Each structure is given as a SMILES string.

Regarding `NCCc1c[nH]c2c(Cl)cc(Cl)cc12` [SNX9-1], in series [1] (2.2 mg/kg (lowest dose) group of 3, intravenously, day one, apparently due to shock), the “deaths, first iteration” value is “One animal died on day one”. Also, in series [1], the “impact on White Blood Cell count, first iteration” value is on record as “neither SNX9 nor SNX9-1 had a detectable impact on White Blood Cell count”; the “impact on White Blood Cell count, second iteration” value is given as “neither SNX9 nor SNX9-1 had a detectable impact on White Blood Cell count”; the “toxicity in the Range Finder Study” value was “complete lack of toxicity”. Further, in series [2], the “kinase activity of CDK2” value is reported as “inhibited the kinase activities”. Besides, in series [3], the “tumor selectivity of growth inhibition, tumor cells vs normal fibroblasts” value was “inhibited all the tumor cells to a greater extent than normal fibroblasts”. Also, the “relative efficacy of inhibition (order of CDKs)” value in series [4] was “CDK3>CDK1>CDK2>CDK6”. The “kinase activity of CDK6” value at CDK6/cyclinD3 (h) was “inhibited the kinase activities”.

Take `Cc1[nH]c2c(Cl)cccc2c1CCN` [SNX9]: the “deaths, second iteration” value in series [1] (70.4 mg/kg group of 3, intravenously, shortly after dosing, likely due to shock and not compound toxicity) is listed as “One animal died shortly after dosing”. Also, in series [1], the “impact on White Blood Cell count, first iteration” value is on record as “neither SNX9 nor SNX9-1 had a detectable impact on White Blood Cell count”; the “impact on White Blood Cell count, second iteration” value is on record as “neither SNX9 nor SNX9-1 had a detectable impact on White Blood Cell count”; the “toxicity in the Range Finder Study” value is given as “complete lack of toxicity”. Besides, the “kinase activity of CDK2” value in series [2] is reported as “inhibited the kinase activities”. Also, the “tumor selectivity of growth inhibition, tumor cells vs normal fibroblasts” value in series [3] was “inhibited all the tumor cells to a greater extent than normal fibroblasts”. In series [4], the “relative efficacy of inhibition (order of CDKs)” value is “CDK3>CDK1>CDK2>CDK6”. Further, at CDK6/cyclinD3 (h), the “kinase activity of CDK6” value was “inhibited the kinase activities”.
